The values below come from patent publication US11807648B2, “Process for preparing substituted polycyclic pyridone derivative and crystal thereof” (priority 2016, dated 2023).

A short description of data set [1]: Plasma concentration after oral administration of Compound (VI) to rats. In kind it is in vivo. The note with it: after oral administration of Compound (VI) to rats under non-fasting condition. An excerpt:
FIG. 7 is a time-course of the concentration in plasma of the compound of formula (V) after oral administration of the compound of formula (VI), which is a prodrug of the compound of formula (V), to rats under non-fasting condition.
FIG. 8 is a time-course of the concentration in plasma of the compound of formula (VI) after oral administration of the compound of formula (VI), which is a prodrug of the compound of formula (V), to rats under non-fasting condition.
FIG. 7 and FIG. 8 show the time-course of the concentration in plasma of Compound (V) and its prodrug Compound (VI) after oral administration of Compound (VI) to rats under non-fasting condition.

Data set [2] has as its target T1, CYP1A2 (Homo sapiens, UniProt P05177).
T1 construct: Using commercially available pooled human hepatic microsome; from tissue
T1 sequence (P05177 1-516): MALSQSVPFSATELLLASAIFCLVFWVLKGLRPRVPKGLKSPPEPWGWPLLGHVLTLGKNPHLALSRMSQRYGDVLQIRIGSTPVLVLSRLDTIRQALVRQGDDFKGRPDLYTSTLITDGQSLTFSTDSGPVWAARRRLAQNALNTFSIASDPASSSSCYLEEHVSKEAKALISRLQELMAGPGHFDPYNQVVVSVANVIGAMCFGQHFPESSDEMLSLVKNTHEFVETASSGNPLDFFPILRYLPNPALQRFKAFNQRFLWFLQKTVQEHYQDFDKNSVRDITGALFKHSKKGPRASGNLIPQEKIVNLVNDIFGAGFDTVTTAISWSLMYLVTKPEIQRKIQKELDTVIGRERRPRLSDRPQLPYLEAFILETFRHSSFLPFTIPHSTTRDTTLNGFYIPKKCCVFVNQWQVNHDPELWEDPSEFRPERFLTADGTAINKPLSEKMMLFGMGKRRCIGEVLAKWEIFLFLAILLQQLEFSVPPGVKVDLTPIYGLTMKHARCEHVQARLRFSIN
Put plainly: biochemical. In kind it is in vitro ADME. The note with it: pooled human hepatic microsome 0.2 mg protein/mL, 15 minutes, 37° C. An excerpt:
(§1) Test Example 3: CYP Inhibition Test
(§2) Using commercially available pooled human hepatic microsome and employing, as a reference, typical substrate metabolism reactions of human main five CYP enzyme forms (CYP1A2, 2C9, 2C19, 2D6, 3A4), i.e., 7-ethoxyresorufin O-deethylation (CYP1A2), tolbutamide methyl-hydroxylation (CYP2C9), mephenytoin 4′-hydroxylation (CYP2C19), dextromethorphan O-demethylation (CYP2D6), and terfenedine hydroxylation (CYP3A4), the degree of inhibition by Compound (V) was assessed for each metabolite production.
(§3) The reaction conditions were as follows:
(§4) Substrate: 0.5 μmol/L ethoxyresorufin (CYP1A2), 100 μmol/L tolbutamide (CYP2C9), 50 μmol/L S-mephenytoin (CYP2C19), 5 μmol/L dextromethorphan (CYP2D6), 1 μmol/L terfenedine (CYP3A4); Reaction time: 15 minutes; Reaction temperature: 37° C.; Enzyme: pooled human hepatic microsome 0.2 mg protein/mL; Concentration of Compound (V): 1, 5, 10, 20 μmol/L (four points).
(§5) For each of the five substances, a reaction solution was prepared on a 96-well plate by adding the substrate, human hepatic microsome and Compound (V) to 50 mmol/L Hepes buffer in the proportion as described above. NADPH, which is a cofactor, was added to initiate the metabolism reaction. After incubating at 37° C. for 15 minutes, a methanol/acetonitrile solution (1/1 (v/v)) was added to quench the reaction. After centrifugation at 3000 rpm for minutes, resorufin (CYP1A2 metabolite) in the supernatant was measured by fluorescent multi-label counter, and hydroxytolbutamide (CYP2C9 metabolite), 4′-hydroxymephenytoin (CYP2C19 metabolite), dextrorphan (CYP2D6 metabolite) and terfenadine alcohol (CYP3A4 metabolite) were measured by LC/MS/MS.
(§6) As a control, DMSO (the solvent for dissolving Compound (V)) was added solely to the reaction system. The remaining activity (%) of Compound (V), relative to the control (100%), was calculated at each concentration of the compound, and the IC50 was calculated by reverse presumption by a logistic model using the concentration and the inhibition rate.

Data set [3] concerns the target T2, CYP2C19 (Homo sapiens, UniProt P33261).
T2 construct: Using commercially available pooled human hepatic microsome; from tissue
Kind of data set: biochemical. In kind it is in vitro ADME. The note with it: pooled human hepatic microsome 0.2 mg protein/mL, 15 minutes, 37° C.
Description: as §1, §2, §3, §4, §5, §6

Data set [4] addresses T3, CYP2C9 (Homo sapiens, UniProt P11712).
T3 construct: Using commercially available pooled human hepatic microsome; from tissue
Put plainly: biochemical. Type of data set: in vitro ADME. The note with it: pooled human hepatic microsome 0.2 mg protein/mL, 15 minutes, 37° C.
Description: as §1, §2, §3, §4, §5, §6

Data set [5] concerns the target T4, CYP2D6 (Homo sapiens, UniProt P10635).
T4 construct: Using commercially available pooled human hepatic microsome; from tissue
Put plainly: biochemical. Type of data set: in vitro ADME. The note with it: pooled human hepatic microsome 0.2 mg protein/mL, 15 minutes, 37° C.
Description: as §1, §2, §3, §4, §5, §6

Data set [6] is classed as in vitro ADME. The note with it: 2 μmol/L of the compound, human liver microsomes 0.5 mg protein/mL, 30 minutes, 37° C., NADPH. Here is the method: Test Example 5: Metabolism Stability Test
Compound (V) was reacted with commercially available pooled human hepatic microsomes for a certain time. The remaining rate of the compound was calculated by comparing the reacted sample and the unreacted sample to assess the degree of metabolism of Compound (V) in liver.
The compound was reacted in 0.2 mL of buffer (50 mmol/L Tris-HCl pH 7.4, 150 mmol/L potassium chloride, 10 mmol/L magnesium chloride) containing 0.5 mg protein/mL of human liver microsomes at 37° C. for 0 minute or 30 minutes in the presence of 1 mmol/L NADPH (oxidative reaction). After the reaction, 50 μL of the reaction solution was added to 100 μL of methanol/acetonitrile=1/1 (v/v), mixed and centrifuged at 3000 rpm for 15 minutes. The amount of Compound (V) in the supernatant was measured by LC/MS/MS, and the remaining rate of the compound after the reaction was calculated, with the amount of the compound at 0 minute of reaction time being 100%. The hydrolysis reaction was carried out in the absence of NADPH, and the glucuronidation reaction was carried out in the presence of 5 mmol/L UDP-glucuronic acid instead of NADPH, and the subsequent procedure was carried out in the same manner as described.
For orientation: Liver microsomes are vesicles of endoplasmic reticulum, rich in cytochrome P450 enzymes.

For data set [7], the system named is red blood cell suspension prepared from ovine defibrinated blood of sheep. Put plainly: Photohemolysis test. In kind it is cell-based. The note with it: UVA and UVB irradiation 10 J/cm^2, 290-400 nm. As to the method:
Test Example 12: Photohemolysis Test
Compound (V) was dissolved at a predetermined concentration and mixed on a microplate with a […] (2.5 v/v %) prepared from ovine defibrinated blood of sheep. Light irradiation in the UVA and UVB wavelength regions (10 J/cm^2, 290-400 nm) was performed using ultraviolet fluorescent lamp (GL20SE lamp, Sankyo Denki and FL20S-BLB lamp, Panasonic). The mixed solution after the irradiation was collected and centrifuged. After centrifugation, the supernatant was collected and transferred to a microplate, and the absorbance (at 540 or 630 nm) of the supernatant was measured. The absorbance at 540 and 630 nm were used as an index of biological membrane damage (% light hemolysis) and lipid membrane peroxidation (methemoglobin production), respectively. (−): less than 10% for photohemolysis rate and less than 0.05 for the change in absorbance at 630 nm; (+): 10% or more for photohemolysis rate and 0.05 or more for the change in absorbance at 630 nm.

Data set [8] deals with T5, CYP3A4 (Homo sapiens, UniProt P08684). Type of data set: in vitro ADME. The arrangement: host or cells: Escherichia coli. The note with it: pre-reaction time 0 or 30 minutes, 7-BFC substrate. As to the method: Test Example 6: CYP3A4 Fluorescent MBI Test
The CYP3A4 fluorescent MBI test investigates enhancement of CYP3A4 inhibition by Compound (V) in metabolism reaction. 7-benzyloxytrifluoromethylcoumarin (7-BFC) was debenzylated by CYP3A4 enzyme (enzyme expressed in Escherichia coli) and a metabolite, 7-hydroxytrifluoromethylcoumarin (7-HFC) which emits fluorescent light was produced. The test was performed using 7-HFC production reaction as an index.
The reaction conditions were as follows: Substrate, 5.6 μmol/L 7-BFC; pre-reaction time, 0 or 30 minutes; reaction time, 15 minutes; reaction temperature, 25° C. […]
A pre-reaction solution containing the enzyme and Compound (V) in K-Pi buffer (pH 7.4) as described above was added to a 96-well plate. […] For each of the plates on which the reaction was performed, the fluorescent value of the metabolite 7-HFC was measured by fluorescent plate reader (Ex=420 nm, Em=535 nm).
As a control for remaining activity, DMSO (i.e., the solvent for dissolving Compound (V)) was added solely to the reaction system, and the remaining activity (%) was calculated for each concentration of Compound (V) in the solution. The IC50 value was calculated by reverse-presumption by logistic model using the concentration and the inhibition rate. […]

In data set [9] the target is T5, CYP3A4. Kind of data set: biochemical. The arrangement: Using commercially available pooled human hepatic microsome; from tissue. The note with it: pooled human hepatic microsome 0.2 mg protein/mL, 15 minutes, 37° C. Type of data set: in vitro ADME.
Description: as §1, §2
The reaction conditions were as follows: […]
For each of the five substances, a reaction solution was prepared on a 96-well plate by adding the substrate, human hepatic microsome and Compound (V) to 50 mmol/L Hepes buffer in the proportion as described above. […] After centrifugation at 3000 rpm for minutes, resorufin (CYP1A2 metabolite) in the supernatant was measured by fluorescent multi-label counter, and hydroxytolbutamide (CYP2C9 metabolite), 4′-hydroxymephenytoin (CYP2C19 metabolite), dextrorphan (CYP2D6 metabolite) and terfenadine alcohol (CYP3A4 metabolite) were measured by LC/MS/MS. […]

SMILES strings stand for the structures. pIC50: −log10 of the molar value.

T5 sequence (P08684 whole entry): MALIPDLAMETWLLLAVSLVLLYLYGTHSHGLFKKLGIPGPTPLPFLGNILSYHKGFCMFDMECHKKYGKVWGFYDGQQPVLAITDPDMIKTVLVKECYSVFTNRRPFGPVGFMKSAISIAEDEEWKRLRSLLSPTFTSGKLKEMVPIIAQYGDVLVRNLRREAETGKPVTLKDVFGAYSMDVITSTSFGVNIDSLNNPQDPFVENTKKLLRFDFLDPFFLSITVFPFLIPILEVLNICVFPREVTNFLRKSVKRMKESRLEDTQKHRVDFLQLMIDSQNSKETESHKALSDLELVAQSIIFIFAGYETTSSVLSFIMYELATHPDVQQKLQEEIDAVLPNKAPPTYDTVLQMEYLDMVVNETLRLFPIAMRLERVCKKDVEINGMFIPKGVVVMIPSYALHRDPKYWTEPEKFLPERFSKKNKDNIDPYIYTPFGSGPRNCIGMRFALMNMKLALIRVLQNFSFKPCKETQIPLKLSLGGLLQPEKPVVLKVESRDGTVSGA
T2 sequence (P33261 whole entry): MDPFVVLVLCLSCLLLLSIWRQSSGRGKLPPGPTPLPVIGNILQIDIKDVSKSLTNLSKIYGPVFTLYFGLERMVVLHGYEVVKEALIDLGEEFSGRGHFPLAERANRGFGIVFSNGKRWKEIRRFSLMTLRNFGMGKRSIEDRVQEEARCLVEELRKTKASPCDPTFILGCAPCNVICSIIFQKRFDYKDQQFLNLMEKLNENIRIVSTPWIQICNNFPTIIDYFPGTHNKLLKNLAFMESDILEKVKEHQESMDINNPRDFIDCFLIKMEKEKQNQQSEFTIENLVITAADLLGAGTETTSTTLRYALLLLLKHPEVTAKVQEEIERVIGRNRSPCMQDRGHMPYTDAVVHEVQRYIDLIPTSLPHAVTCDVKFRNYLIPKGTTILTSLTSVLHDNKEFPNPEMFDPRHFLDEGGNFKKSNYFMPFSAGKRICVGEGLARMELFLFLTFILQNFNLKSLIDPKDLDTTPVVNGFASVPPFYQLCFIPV
T3 sequence (P11712 whole entry): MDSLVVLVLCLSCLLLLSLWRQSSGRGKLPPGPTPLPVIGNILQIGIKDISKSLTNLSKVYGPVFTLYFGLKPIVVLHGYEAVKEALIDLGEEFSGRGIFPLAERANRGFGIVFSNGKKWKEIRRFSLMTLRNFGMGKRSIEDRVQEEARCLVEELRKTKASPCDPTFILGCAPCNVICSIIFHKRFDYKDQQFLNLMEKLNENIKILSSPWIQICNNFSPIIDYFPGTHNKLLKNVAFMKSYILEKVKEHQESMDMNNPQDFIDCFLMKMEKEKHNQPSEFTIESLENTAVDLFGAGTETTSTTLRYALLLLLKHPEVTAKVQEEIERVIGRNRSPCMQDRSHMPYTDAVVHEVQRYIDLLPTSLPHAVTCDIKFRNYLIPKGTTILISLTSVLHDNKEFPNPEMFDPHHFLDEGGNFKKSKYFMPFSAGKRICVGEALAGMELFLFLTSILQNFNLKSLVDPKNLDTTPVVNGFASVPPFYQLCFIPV
T4 sequence (P10635 whole entry): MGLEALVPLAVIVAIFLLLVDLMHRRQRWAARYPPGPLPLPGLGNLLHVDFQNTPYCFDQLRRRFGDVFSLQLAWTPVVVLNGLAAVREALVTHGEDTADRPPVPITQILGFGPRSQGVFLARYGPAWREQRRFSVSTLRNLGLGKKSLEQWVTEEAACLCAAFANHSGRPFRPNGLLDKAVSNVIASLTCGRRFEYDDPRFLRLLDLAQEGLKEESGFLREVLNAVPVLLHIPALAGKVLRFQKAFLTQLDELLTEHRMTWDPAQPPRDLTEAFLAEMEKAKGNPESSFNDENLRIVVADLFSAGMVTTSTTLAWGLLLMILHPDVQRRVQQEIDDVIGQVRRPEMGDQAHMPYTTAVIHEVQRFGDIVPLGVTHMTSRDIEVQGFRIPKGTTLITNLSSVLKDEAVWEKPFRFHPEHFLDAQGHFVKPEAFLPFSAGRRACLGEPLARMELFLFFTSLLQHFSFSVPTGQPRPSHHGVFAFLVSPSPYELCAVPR

As for `COC(=O)OCOc1c2n(ccc1=O)N([C@@H]1c3ccccc3SCc3c1ccc(F)c3F)[C@@H]1COCCN1C2=O` [Compound (VI)], the “concentration in plasma sample” value in [1] is listed as “below the limit of quantification”.
The pIC50 is −log10 of the IC50, conventionally taken in molar units. Lower therefore signals a high IC50. For the compound `O=C1c2c(O)c(=O)ccn2N([C@@H]2c3ccccc3SCc3c2ccc(F)c3F)[C@@H]2COCCN12` [Compound (V)], the negative logarithm of the IC50 (pIC50) in data set [2], in [3], in data set [4], in data set [5] and in data set [9] was below 4.70 in each case. Also, the “remaining rate in oxidative metabolism” value in data set [6] is reported as 90.1%. The photohemolysis entry in data set [7] is “(−) ((−): less than 10% for photohemolysis rate and less than 0.05 for the change in absorbance at 630 nm)”. Moreover, the “CYP3A4 fluorescent MBI (difference in IC50 values with/without pre-incubation)” value in data set [8] is given as “(−) (a difference of 3 μM or less was defined as (−))”.
